The record followed here is ChEMBL document CHEMBL5338751, “Discovery of the First-in-Class Intestinal Restricted FXR and FABP1 Dual Modulator ZLY28 for the Treatment of Nonalcoholic Fatty Liver Disease” (J Med Chem, 2023).

Series [1] addresses T1, Fatty acid-binding protein, liver (Homo sapiens) (UniProt P07148).
T1 sequence (whole entry): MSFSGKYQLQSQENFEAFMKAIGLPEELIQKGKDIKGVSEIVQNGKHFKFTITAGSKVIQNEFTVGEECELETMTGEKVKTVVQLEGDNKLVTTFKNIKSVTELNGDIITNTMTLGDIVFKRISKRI
Kind of series: Displacement of 8-anilino-1-naphthalene-sulfonic acid from FABP1 (unknown origin) at 10 uM incubated for 3 mins by fluorescence based assay relative to control.

Series [2] in a line: Metabolic stability in mouse liver microsomes assessed as parent compound remaining incubated for 1 hr by LC-MS analysis. The format is ADME, Microsome. The note with it: read-out: Stability.
The nature of series [3]: Metabolic stability in Sprague-Dawley rat liver microsomes assessed as parent compound remaining incubated for 1 hr by LC-MS analysis. The format is ADME, Microsome. The conditions noted are these: read-out: Stability. Background: Liver microsomes are a subcellular fraction often used to study metabolism.
Series [4] deals with T2, Peroxisome proliferator-activated receptor alpha (Homo sapiens, UniProt Q07869).
T2 sequence (Q07869 whole entry): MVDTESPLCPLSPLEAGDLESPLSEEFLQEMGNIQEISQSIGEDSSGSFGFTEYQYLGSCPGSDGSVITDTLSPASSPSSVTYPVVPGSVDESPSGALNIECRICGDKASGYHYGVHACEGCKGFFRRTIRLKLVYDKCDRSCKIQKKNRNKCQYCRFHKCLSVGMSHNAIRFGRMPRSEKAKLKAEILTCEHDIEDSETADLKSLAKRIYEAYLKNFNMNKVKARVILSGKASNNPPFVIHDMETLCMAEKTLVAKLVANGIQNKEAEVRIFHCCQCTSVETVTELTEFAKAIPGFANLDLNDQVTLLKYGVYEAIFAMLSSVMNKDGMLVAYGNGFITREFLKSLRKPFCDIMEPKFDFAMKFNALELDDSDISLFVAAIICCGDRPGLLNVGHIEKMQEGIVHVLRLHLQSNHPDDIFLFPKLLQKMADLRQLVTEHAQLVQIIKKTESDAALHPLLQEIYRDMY
Nature of the series: Agonist activity at pBIND-PPARalpha (unknown origin) transfected in HepG2 cells incubated for 18 hrs by renilla/firefly based dual-glo luciferase assay. The format is cell-based.

In the next series the target is Estrogen receptor beta (Homo sapiens, UniProt Q92731). Nature of the series: Activation of Gal-DBD and NHRLBD fused ERbeta (unknown origin) transfected in African green monkey CV-1 cells by luciferase reporter assay. In kind it is cell-based. (In general: A reporter such as luciferase makes a cellular process visible.)
For series [5], the target named is Fatty acid-binding protein, heart (Homo sapiens, UniProt P05413). Nature of the series: Displacement of 8-anilino-1-naphthalene-sulfonic acid from FABP3 (unknown origin) incubated for 3 mins by fluorescence based assay.
The nature of series [6]: Drug concentration in C57BL/6 mouse plasma at 20 mg/kg, po administered for 5 days and measured after 1 hr post final dose by LC-MS analysis. The format is ADME, organism-based. The conditions noted are these: time 5 day.
Series [7] has as its target T3, Bile acid receptor (Mus musculus) (UniProt Q60641).
T3 sequence (whole entry): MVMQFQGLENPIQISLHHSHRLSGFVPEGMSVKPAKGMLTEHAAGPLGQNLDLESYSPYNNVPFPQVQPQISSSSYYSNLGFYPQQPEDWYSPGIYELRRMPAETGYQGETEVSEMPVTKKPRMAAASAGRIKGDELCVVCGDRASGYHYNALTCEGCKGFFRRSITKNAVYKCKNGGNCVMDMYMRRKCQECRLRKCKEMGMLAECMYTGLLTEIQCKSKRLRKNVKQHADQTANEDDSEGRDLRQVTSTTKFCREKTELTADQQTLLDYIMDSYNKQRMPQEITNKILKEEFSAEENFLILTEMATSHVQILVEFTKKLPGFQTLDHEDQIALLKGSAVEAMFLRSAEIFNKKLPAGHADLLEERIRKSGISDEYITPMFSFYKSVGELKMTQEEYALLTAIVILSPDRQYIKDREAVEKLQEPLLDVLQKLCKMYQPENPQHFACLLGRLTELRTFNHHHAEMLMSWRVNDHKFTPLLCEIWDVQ
Kind of series: Activation of FXR in C57BL/6 mouse ileum assessed as upregulation of SHP gene expression at 20 mg/kg, po administered for 5 days and measured after 1 hr post final dose by RT-PCR analysis. The conditions noted are these: filed as activator, time 5.0 day. In kind it is organism-based.

Series [8] has as its target T3, Bile acid receptor (Mus musculus). Nature of the series: Activation of FXR in C57BL/6 mouse ileum assessed as upregulation of OST-beta gene expression at 20 mg/kg, po administered for 5 days and measured after 1 hr post final dose by RT-PCR analysis. In kind it is organism-based. The conditions noted are these: filed as activator, time 5.0 day.
Series [9] has as its system Mus musculus. Nature of the series: Anti-NASH activity in western diet and CCl4-induced nonalcoholic steatohepatitis C57BL/6 mouse assessed as alleviation of hepatic steatosis at 20 mg/kg, po administered for 12 weeks starting from week 8 and change in dose for every 5 days. The format is functional, organism-based. The note with it: time 4.0 weeks.
Series [10] concerns Mus musculus. Kind of series: Anti-NASH activity in western diet and CCl4-induced nonalcoholic steatohepatitis C57BL/6 mouse assessed as alleviation of ballooning at 20 mg/kg, po administered for 12 weeks starting from week 8 and change in dose for every 5 days. In kind it is functional, organism-based. The note with it: time 4.0 weeks.
The test system of series [11] is Mus musculus. Nature of the series: In vivo inhibition of FABP1 in western diet and CCl4-induced nonalcoholic steatohepatitis C57BL/6 mouse assessed as increase in excretion of NEFA in fecal at 20 mg/kg, po administered for 12 weeks starting from week 8 and change in dose for every 5 days. The format is functional, organism-based. The note with it: time 4.0 weeks.

Series [12] deals with Mus musculus. Kind of series: Anti-NASH activity in western diet and CCl4-induced nonalcoholic steatohepatitis C57BL/6 mouse assessed as reduction in MCP-1 level at 20 mg/kg, po administered for 12 weeks starting from week 8 and change in dose for every 5 days by ELISA. In kind it is functional, organism-based. The note with it: time 4.0 weeks. (In an ELISA, binding on a coated surface is turned into a signal by an enzyme label.)

For series [13], the system named is Mus musculus. Kind of series: Anti-NASH activity in western diet and CCl4-induced nonalcoholic steatohepatitis C57BL/6 mouse assessed as downregulation of IL-1beta expression level at 20 mg/kg, po administered for 12 weeks starting from week 8 and change in dose for every 5 days by ELISA. In kind it is functional, organism-based. The note with it: time 4.0 weeks.

Series [14] deals with Mus musculus. Kind of series: Anti-NASH activity in western diet and CCl4-induced nonalcoholic steatohepatitis C57BL/6 mouse assessed as downregulation of TNFalpha expression level at 20 mg/kg, po administered for 12 weeks starting from week 8 and change in dose for every 5 days by ELISA. The note with it: time 4.0 weeks. In kind it is functional, organism-based.
Series [15] has as its system Mus musculus. Nature of the series: Anti-NASH activity in western diet and CCl4-induced nonalcoholic steatohepatitis C57BL/6 mouse assessed as downregulation of F4/80 expression level at 20 mg/kg, po administered for 12 weeks starting from week 8 and change in dose for every 5 days. The note with it: time 4.0 weeks. In kind it is functional, organism-based.
Series [16] in a line: Subacute toxicity in ICR mouse assessed as animal death at 500 mg/kg/day, po administered for 14 days. The format is organism-based. The conditions noted are these: in vivo, 336 h, time 14 day.
Series [17] is described as follows: Subacute toxicity in ICR mouse assessed as changes in body weight at 500 mg/kg/day, po administered for 14 days. In kind it is organism-based. The conditions noted are these: in vivo, 336 h, time 14 day.
Series [18] can be described thus: Subacute toxicity in ICR mouse assessed as changes in organ to body weight ratio at 500 mg/kg/day, po administered for 14 days. In kind it is organism-based. The conditions noted are these: in vivo, 336 h, time 14 day.
Series [19] is described as follows: Subacute toxicity in ICR mouse assessed as changes in serum TBA level at 500 mg/kg/day, po administered for 14 days. In kind it is organism-based. The conditions noted are these: in vivo, 336 h, time 14 day.
Series [20] can be described thus: Subacute toxicity in ICR mouse assessed as changes in serum UA level at 500 mg/kg/day, po administered for 14 days. The format is organism-based. The note with it: in vivo, 336 h, time 14 day.

Molecules are shown by their SMILES. pEC50, pIC50: −log10 of the molar value. Activity calls are given as the source filed them. The calls are words filed in the database; no cut-off is given here.

Chain of Estrogen receptor beta (Q92731 whole entry, the tested form may be a part): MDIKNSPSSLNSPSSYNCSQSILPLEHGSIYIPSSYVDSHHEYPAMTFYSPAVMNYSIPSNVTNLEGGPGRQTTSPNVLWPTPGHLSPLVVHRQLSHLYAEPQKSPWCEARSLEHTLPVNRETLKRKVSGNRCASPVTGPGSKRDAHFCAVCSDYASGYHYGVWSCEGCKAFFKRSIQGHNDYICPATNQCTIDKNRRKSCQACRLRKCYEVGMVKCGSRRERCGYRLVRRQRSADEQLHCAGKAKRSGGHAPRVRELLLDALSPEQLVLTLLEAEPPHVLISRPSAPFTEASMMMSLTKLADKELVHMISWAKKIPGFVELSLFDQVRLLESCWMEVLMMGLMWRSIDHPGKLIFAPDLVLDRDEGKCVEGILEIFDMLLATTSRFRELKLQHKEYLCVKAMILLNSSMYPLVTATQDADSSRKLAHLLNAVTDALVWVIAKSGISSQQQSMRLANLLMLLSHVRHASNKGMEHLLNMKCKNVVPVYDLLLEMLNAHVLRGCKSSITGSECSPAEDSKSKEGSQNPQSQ
Chain of Fatty acid-binding protein, heart (P05413 whole entry): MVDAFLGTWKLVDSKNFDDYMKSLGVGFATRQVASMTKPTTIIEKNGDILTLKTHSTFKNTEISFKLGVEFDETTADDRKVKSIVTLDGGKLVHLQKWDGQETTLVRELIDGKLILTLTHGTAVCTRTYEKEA

In [1], `O=C(O)C1(c2cccc(-c3ccc(OCc4c(-c5c(Cl)cccc5Cl)noc4C4CC4)cc3)c2)CC1` showed an inhibition of 83.6%. Further, the values for the remaining at 1 h in series [2] and in series [3] were 64.3% and 68.6%, respectively. Further, the pEC50 (in series [4]; on Estrogen receptor beta) was less than 5.00 in each case. The same compound had a pIC50 in [5] of less than 4.52. Also, the concentration at 120 h in series [6] is 29 ng/mL. Besides, the result (in series [7]; in series [8]; with Mus musculus [9]; with Mus musculus [10]; with Mus musculus [11]; in the series with Mus musculus [12]) was Active. In addition, the result with Mus musculus [13], with Mus musculus [14] and with Mus musculus [15] was Active. Moreover, the Activity entry in series [16], in [17], in series [18], in [19] and in series [20] was “Non-Toxic” in each case.

As a reminder, the inhibition is the relative decrease from the control value, in per cent. By pEC50 is commonly meant the EC50 on a negative log10 scale, so that one unit is a factor of ten. In general, pIC50 refers to the IC50 on a negative log10 scale, so that one unit is a factor of ten.
